Our source for the MIC values is ChEMBL document CHEMBL1154406, “Can the Etest correctly determine the MICs of beta-lactam and cephalosporin antibiotics for beta-lactamase-negative ampicillin-resistant Haemophilus influenzae?” (2007).

Converted amounts (≈) assume the structure as drawn.

Holding throughout (type): functional
Experiment [1] concerns Haemophilus influenzae. Briefly: Antimicrobial activity against beta-lactamase negative ampicillin-resistant Haemophilus influenzae by broth microdilution method.
Experiment [2] has as its system Haemophilus influenzae. Briefly: Antimicrobial activity against beta-lactamase negative ampicillin-susceptible Haemophilus influenzae by broth microdilution method. In general terms: Dilution methods test growth across graded concentrations, often in twofold steps.
The subject of experiment [3] is Haemophilus influenzae. Briefly: Antimicrobial activity against beta-lactamase negative ampicillin-resistant Haemophilus influenzae by E-test.
For experiment [4], the system named is Haemophilus influenzae. Briefly: Antimicrobial activity against beta-lactamase negative ampicillin-susceptible Haemophilus influenzae by E-test.
In experiment [5] the test system is Haemophilus influenzae. Briefly: Antimicrobial activity against Haemophilus influenzae expressing mutant ftsI gene.
Experiment [6] relates to Haemophilus influenzae. Briefly: Antimicrobial activity against beta-lactamase positive amoxicillin/clavulanate-resistant Haemophilus influenzae by E-test.
Experiment [7] deals with Haemophilus influenzae. The experiment is described as follows: Antimicrobial activity against beta-lactamase positive ampicillin-resistant Haemophilus influenzae by E-test.
Experiment [8] has as its system Haemophilus influenzae. Briefly: Antimicrobial activity against beta-lactamase positive amoxicillin/clavulanate-resistant Haemophilus influenzae by broth microdilution method.
For experiment [9], the system named is Haemophilus influenzae. Briefly: Antimicrobial activity against beta-lactamase positive ampicillin-resistant Haemophilus influenzae by broth microdilution method.

Regarding `C[C@H]1COc2c(N3CCN(C)CC3)c(F)cc3c(=O)c(C(=O)O)cn1c23.C[C@H]1COc2c(N3CCN(C)CC3)c(F)cc3c(=O)c(C(=O)O)cn1c23.O` [LEVOFLOXACIN], the MIC against Haemophilus influenzae [1] was 1 µg/mL; against Haemophilus influenzae [2], under 0.06 µg/mL; against Haemophilus influenzae [3], under 0.016 µg/mL; in the experiment on Haemophilus influenzae [4], under 0.06 µg/mL.
In the experiment on Haemophilus influenzae [5], `C=CC1=C(C(=O)O)N2C(=O)[C@@H](NC(=O)/C(=N\OCC(=O)O)c3csc(N)n3)[C@H]2SC1` [CEFIXIME] had an MIC of 0.03 µg/mL (≈ 0.0662 µM).
In the experiment on Haemophilus influenzae [5], `N[C@@H](C(=O)N[C@@H]1C(=O)N2C(C(=O)O)=C(Cl)CS[C@H]12)c1ccccc1` [CEFACLOR ANHYDROUS] displayed an MIC of 4 µg/mL (≈ 10.9 µM).
Turning to `C[C@@H](O)[C@H]1C(=O)N2C(C(=O)O)=C(S[C@@H]3CN[C@H](C(=O)N(C)C)C3)[C@H](C)[C@H]12` [MEROPENEM], the MIC was 0.125 µg/mL in the experiment with Haemophilus influenzae [6]; 0.064 µg/mL (≈ 0.167 µM) in the experiment on Haemophilus influenzae [7]; under 0.06 µg/mL in the experiment on Haemophilus influenzae [2]; 0.125 µg/mL (≈ 0.326 µM) in the experiment on Haemophilus influenzae [3]; 0.064 µg/mL (≈ 0.167 µM) with Haemophilus influenzae [4].
The molecule `CO/N=C(\C(=O)N[C@@H]1C(=O)N2C(C(=O)O)=C(COC(N)=O)CS[C@H]12)c1ccco1` [CEFUROXIME] had an MIC against Haemophilus influenzae [5] of 0.5 µg/mL (≈ 1.18 µM).
`CO/N=C(\C(=O)N[C@@H]1C(=O)N2C(C(=O)O)=C(CSc3nc(=O)c(O)nn3C)CS[C@H]12)c1csc(N)n1` [CEFTRIAXONE]: the MIC was 0.06 µg/mL (≈ 0.108 µM) against Haemophilus influenzae [1]; 0.25 µg/mL in the experiment with Haemophilus influenzae [6]; 0.008 µg/mL (≈ 0.0144 µM) in the experiment on Haemophilus influenzae [7]; under 0.06 µg/mL in the experiment on Haemophilus influenzae [2]; 0.012 µg/mL (≈ 0.0216 µM) in the experiment with Haemophilus influenzae [3]; 0.008 µg/mL (≈ 0.0144 µM) in the experiment with Haemophilus influenzae [4].
Turning to `CC1(C)S[C@@H]2[C@H](NC(=O)[C@H](N)c3ccccc3)C(=O)N2[C@H]1C(=O)O` [AMPICILLIN], the MIC was determined as 1 µg/mL (≈ 2.86 µM) with Haemophilus influenzae [1]; 256 µg/mL with Haemophilus influenzae [8]; 256 µg/mL with Haemophilus influenzae [6]; 4 µg/mL (≈ 11.4 µM) in the experiment with Haemophilus influenzae [7]; 0.25 µg/mL (≈ 0.715 µM) against Haemophilus influenzae [2]; 32 µg/mL (≈ 91.6 µM) in the experiment on Haemophilus influenzae [9]. Also, the MIC with Haemophilus influenzae [3] was 1 µg/mL (≈ 2.86 µM); with Haemophilus influenzae [4], 0.25 µg/mL (≈ 0.715 µM).
